Test results: paper PMC3183052, “Immunoprotectivity of HLA-A2 CTL Peptides Derived from Respiratory Syncytial Virus Fusion Protein in HLA-A2 Transgenic Mouse” (PLoS ONE, 2011)

Legend:
[1] = test system: CD4+CD25+ T cells; assay: Infiltration of CD4+CD25+ T cells in the lungs after RSV challenge; format: in vivo, mouse; conditions: mice pre-immunized with peptide and challenged with live RSV; unshown results
[2] = test system: splenocytic CD8+ T cells; assay: CFSE proliferation of CD8+ T cells after in vitro peptide restimulation; format: cell-based, mouse; conditions: mice immunized s.c. twice with 50 µg peptide in IFA; splenocytes restimulated with 10 µg/mL peptide for 8 days
Protocol: To screen the immunodominance of epitopic peptide in the induction of RSV-F specific Th1/Th2 expression, HLA-A*0201 transgenic C57BL/6 mice were anesthetized with isoflurane and immunized with 1×10^7 pfu/50 µL of rAd-F0 or rAd-LacZ or 1×10^4 live RSV B1 via the intranasal (i.n.) route. Twenty days later, the mice were given booster immunization i.n. with the same dose. After 10 days of boost, mice were sacrificed and splenocytes were isolated for the cytokine ELISPOT assay. […] Mice body weight was monitored daily.
The splenocytes were isolated, labeled with 5-(6)-carboxyfluorescein diacetate succinimidyl ester (CFSE) (Sigma-Aldrich) and stimulated in vitro with 10 µg/mL of the synthetic peptides for 4 or 8 days. Proliferation of splenocytic CD4^+ and CD8^+ T cells was analyzed by flow cytometry (BD FACSCalibur) using PE-Cy5-labeled specific antibody against CD4 (eBioscience) or CD8 (eBioscience), respectively. Cell division index (CDI), a ratio of CFSE-diluted CD4^+ or CD8^+ T cells stimulated by peptide to CFSE-diluted unstimulated CD4^+ or CD8^+ T cells, was calculated as shown below; [drawing 1] […]
Figure 2 Epitope-specific CD4^+ and CD8^+ T-cell activation in peptide-immunized HLA-A*0201 transgenic mice. […] Proliferation of CD4^+ (A) or CD8^+ (B) lymphocytes in response to the different CD8 epitopes was analyzed by flow cytometry using anti-CD4 or CD8 antibodies conjugated with PE-Cy5. […]

[3] = biological target: T1, HLA-A*0201 (Homo sapiens, UniProt P04439, D140Y/D185E/D98H/E176V/E277Q/G131W/G231S/I119V/I121R/I166T/I218V/L300P/L318F/N151K/N90K/P208A/P217A/Q86G/Q94H/R138H/R169H/T345S); assay: T2 cell-stabilization assay (T2-binding); conditions: T2 cells 5×10^5, peptide 50 µg/mL + β2-microglobulin 5 µg/mL, 28°C 16–18 h, then brefeldin A 10 µg/mL 37°C 3 h; FITC anti-HLA-A2, flow cytometry; MFI relative to negative control HCV C55-74 (set as 1)
T1 construct: Human T2 cells (purchased from the American Type Culture Collection, ATCC) (ATCC No. CRL-1992) expressing the HLA-A*0201 gene; endogenous in cells; host or cells: human T2 cells (ATCC CRL-1992)
Summary of the method: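 T2 cells were pulsed with 9-mer peptides (50 µg/mL) plus β2-microglobulin (5 µg/mL) at 28°C for 16–18 hours, then brefeldin A (10 µg/mL) at 37°C for 3 hours. Surface HLA-A2 was stained with FITC anti-HLA-A2 and read by flow cytometry. Binding is MFI relative to T2 cells loaded with HCV peptide C55-74 (MFI = 1).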

YMLTNSELL [peptide 14, HLA-A*0201-restricted 9-mer synthetic peptide from F protein of RSV-B1 strain]
infiltration of CD4+CD25+ T cells in the lungs [1]: increased infiltration | proliferation of CD8+ T cells (cell division index) [2]: ~3 fold | T2-binding Ratio of MFI [3]: 1.71
